Structures can show the parent of a compound that is named as a salt. Where only a bound is given, the exact number is not on record here.

The first assay deals with F-2,6-P2 in PANC-1 cells. The assay is described as follows: Quantification of F-2,6-P2 (Van Schaftingen coupled enzyme assay) in PANC-1 cells. It counts as cell-based, human. Conditions: Homo sapiens; PANC-1 cells; read-out: IC50 based on quantification of F-2,6-P2. From the text: A method for quantification of F-2,6-P2 has been described by Van Schaftingen et al. (1982) Eur. J. Biochem. 129, 191-5. This sensitive assay is based on the potent activation of pyrophosphate dependent phosphofructokinase-1 (PPi-PFK) from potato tubers by F-2,6-P2. The use of a series of coupled enzymes leads to a consumption of NADH (nicotinamide adenine dinucleotide) that can be followed spectrophotometrically (an updated protocol is available in Van Schaftingen, (1984) Methods of Enzymatic Analysis (Bergmeyer, H. U., ed.), 3rd edn., vol. 6, pp. 335-341, Verlag Chemie, Weinheim). A protocol for measurements in 96-well microtiter plate format is also available (Bruni et al., (1989) Anal. Biochem. 178, 324-6).
The levels of F-2,6-P2 have been determined using the van Shaftingen assay as described in the protocol below, in six different cancer cell lines endogenously expressing varying levels of the different isoforms of PFK-2/BPase-2 (MCF-7, PANC-1, NUGC-3, SW480, SW620 and MIA PaCa-2). All reagents were purchased from commercial sources or prepared in-house.
Cell line B (PANC-1, human pancreatic carcinoma cell line): PANC-1 cells (ATCC-CRL-1469), lot. no. 58564651. Cells were seeded at a concentration of ˜250 000 cells/mL in 100 μL growth medium (˜25 000 cells/well).
Growth medium (cell lines B-F): Dulbecco's Modified Eagle's Medium, DMEM, VWR, LONZ12-604F; 10% FBS, Invitrogen, 10270-106.
Starvation medium (cell lines A-F): DMEM/F12 without phenol red and glucose free, SVA, 991373; 0.25% FBS, Invitrogen, 10270-106.
Induction medium (cell lines A-F): DMEM/F12 without phenol red and glucose free, SVA, 991373; 0.25% FBS, Invitrogen, 10270-106 (same as starvation medium).
Cells were seeded in 96-well Corning Costar tissue culture plates (CLS3595, Sigma-Aldrich) using the concentrations specified above for the different cell lines A-F and incubated over night at 37° C. and 5% CO2. Row A in the plate was left empty and the cell lines added to rows B-H. Next day the growth medium was discarded and replaced with 100 μL starvation medium. The plates were incubated for 18 h at 37° C. and 5% CO2. After 18 h of starvation the cells were induced with 100 μL compound or control solutions. Compounds were either tested in two concentrations (50 μM and 10 μM) or in dose response curves starting from 50 μM. The final DMSO concentration in assay plates was 0.5%. Also a dose response curve of a reference inhibitor was included in row H on each plate. All compounds were tested in duplicate plates. Compounds (in 96 well CLS 3365, Sigma-Aldrich plates) were serial diluted in DMSO from 10 mM compound DMSO stock solutions with Janus (automated liquid handling workstation from PerkinElmer). Five μL were transferred to a Greiner deep well plate (736-0155, VWR) with 495 μL starvation medium. The final start concentration of compounds in the dilution plate was 100 μM, 1% DMSO. For compounds tested as single points, 10 mM compound solutions were diluted five fold in DMSO to 2 mM, followed by the transfer of 5 μL to separate dilution plates with 495 μL starvation medium. The final concentrations of compounds in these dilution plates were 100 or 20 μM, respectively, and final concentration of DMSO was 1%. The plates were incubated at 37° C. and 5% CO2 for 1 h, followed by the addition of 10 μL 20 mM D-glucose in starvation medium. Controls, with and without 1 mM glucose, were included in row B. The final assay volume was 210 μL per well. After 2 h of incubation at 37° C. and 5% CO2, the supernatants were discarded and the cells lysed by the addition of 25 μL 250 mM NaOH. The plates were incubated at 37° C. and 5% CO2 for 5 min followed by an addition of 75 μL MilliQ dH2O. The supernatants were further diluted with 210 μL MilliQ dH2O to a final concentration of 20 mM NaOH. 200 μL were transferred to NUNC 96-well plates (7322661, VWR) and the plates were sealed and stored at −20° C. until analysis. […]
Regarding `COC(=O)c1ccc(NS(=O)(=O)c2cc(-c3cccc(N)c3)c(Cl)s2)cc1O` [Example 107, Methyl 4-({[4-(3-aminophenyl)-5-chlorothiophen-2-yl]sulfonyl}amino)-2-hydroxybenzoate trifluoroacetate], the IC50 turned out to be 2800 nM.

With `COC(=O)c1ccc(NS(=O)(=O)c2cc(-c3ccc4c(c3)CCO4)cc(C(F)(F)F)c2)cc1O` [Example 116, Methyl 4-({[3-(2,3-dihydro-1-benzofuran-5-yl)-5-(trifluoromethyl)phenyl]sulfonyl}amino)-2-hydroxybenzoate], the IC50 came to 1700 nM.

Take `COC(=O)c1ccc(NS(=O)(=O)c2ccc(F)c(Cl)c2)cc1O` [Example 32, Methyl 4-{[(3-chloro-4-fluorophenyl)sulfonyl]amino}-2-hydroxybenzoate]: the IC50 amounted to 4800 nM.

Regarding `COC(=O)c1ccc(NS(=O)(=O)c2cccc(-c3ccccc3)c2)cc1O` [Example 87, Methyl 4-[(biphenyl-3-ylsulfonyl)amino]-2-hydroxybenzoate], the IC50 was found to be 1600 nM.

Consider `COC(=O)c1ccc(NS(=O)(=O)c2cnc(Cl)c(-c3ccc4c(c3)CCO4)c2)cc1O` [Example 155, Methyl 4-({[6-chloro-5-(2,3-dihydro-1-benzofuran-5-yl)pyridin-3-yl]sulfonyl}amino)-2-hydroxybenzoate], for which the IC50 is 4900 nM.

Consider `Cc1cc(NCCCOC(=O)c2ccc(NS(=O)(=O)c3cccc(-c4cc(F)ccc4O)c3)cc2O)no1` [Example 232, 3-[(5-Methylisoxazol-3-yl)amino]propyl 4-{[(5′-fluoro-2′-hydroxybiphenyl-3-yl)sulfonyl]amino}-2-hydroxybenzoate trifluoroacetate], for which the concentration for half-maximal inhibition (IC50) is 800 nM.

Regarding `COC(=O)c1ccc(NS(=O)(=O)c2cccc(-c3ccc(C(C)=O)s3)c2)cc1O` [Example 95, Methyl 4-({[3-(5-acetyl-2-thienyl)phenyl]sulfonyl}amino)-2-hydroxybenzoate], the IC50 is 1700 nM.

In the case of `COC(=O)c1ccc(NS(=O)(=O)c2cc(Cl)sc2Cl)cc1O` [Example 25, Methyl 4-{[(2,5-dichloro-3-thienyl)sulfonyl]amino}-2-hydroxybenzoate], the concentration for half-maximal inhibition (IC50) turned out to be 2300 nM.

For `COC(=O)c1ccc(NS(=O)(=O)c2cc3ccccc3o2)cc1O` [Example 9, Methyl 4-[(1-benzofuran-2-ylsulfonyl)amino]-2-hydroxybenzoate], the IC50 is 19600 nM.

For the molecule `COCC(COC)OC(=O)c1ccc(NS(=O)(=O)c2cc(-c3cccc(F)c3)c(Cl)s2)cc1O` [Example 222, 2-Methoxy-1-(methoxymethyl)ethyl 4-({[5-chloro-4-(3-fluorophenyl)-2-thienyl]sulfonyl}amino)-2-hydroxybenzoate], the IC50 is 2000 nM.

The same assay, now with this note: at 12.5-50 μM in PANC-1 cells.
Turning to `COC(=O)c1ccc(NS(=O)(=O)c2cccc(-c3ccc(C(F)(F)F)cc3)c2)cc1O` [Example 100, Methyl 2-hydroxy-4-({[4′-(trifluoromethyl)biphenyl-3-yl]sulfonyl}amino)benzoate], the “inhibition (F-2,6-P2 levels)” value is at least 50%.

`COC(=O)c1ccc(NS(=O)(=O)Cc2cccc(Br)c2)cc1O` [Example 23, Methyl 4-{[(3-bromobenzyl)sulfonyl]amino}-2-hydroxybenzoate]: the “inhibition (F-2,6-P2 levels)” value is at least 50%.

In the case of `O=C(O)C(F)(F)F.O=C(OCCCn1ccnc1)c1ccc(NS(=O)(=O)c2cc(Cl)c(Cl)s2)cc1O` [Example 64, 3-(1H-Imidazol-1-yl)propyl 4-{[(4,5-dichlorothiophen-2-yl)sulfonyl]amino}-2-hydroxybenzoate trifluoroacetate], the “inhibition (F-2,6-P2 levels)” value is at least 50%.

For the molecule `COC(=O)c1ccc(NS(=O)(=O)c2cccc(C(C)=O)c2)cc1O` [Example 129, Methyl 4-{[(3-acetylphenyl)sulfonyl]amino}-2-hydroxybenzoate], the “inhibition (F-2,6-P2 levels)” value was at least 50%.

Regarding `COC(=O)c1ccc(NS(=O)(=O)c2ccc(-c3ccccc3)cc2)cc1O` [Example 35, Methyl 4-[(biphenyl-4-ylsulfonyl)amino]-2-hydroxybenzoate], the “inhibition (F-2,6-P2 levels)” value is listed as at least 50%.

The term IC50 denotes the midpoint of a concentration-inhibition curve.

For the origin of these results see patent US9718809B2, “Bisarylsulfonamides useful in the treatment of inflammation and cancer” (Kancera AB, priority 2011, dated 2017).
